Reference: ChEMBL document CHEMBL1129837, “Quantitative structure-activity relationships of benzoyliminothiadiazoline derivatives as angiotensin II receptor antagonists” (Bioorg Med Chem Lett, 1997)

These molecules were tested against T1, Type-1 angiotensin II receptor B (Rattus norvegicus, UniProt P29089) (assay: Inhibition of binding of [125I]All at the angiotensin II type 1 receptor (AT1 receptor) in rat liver membranes).
T1 sequence (P29089 whole entry): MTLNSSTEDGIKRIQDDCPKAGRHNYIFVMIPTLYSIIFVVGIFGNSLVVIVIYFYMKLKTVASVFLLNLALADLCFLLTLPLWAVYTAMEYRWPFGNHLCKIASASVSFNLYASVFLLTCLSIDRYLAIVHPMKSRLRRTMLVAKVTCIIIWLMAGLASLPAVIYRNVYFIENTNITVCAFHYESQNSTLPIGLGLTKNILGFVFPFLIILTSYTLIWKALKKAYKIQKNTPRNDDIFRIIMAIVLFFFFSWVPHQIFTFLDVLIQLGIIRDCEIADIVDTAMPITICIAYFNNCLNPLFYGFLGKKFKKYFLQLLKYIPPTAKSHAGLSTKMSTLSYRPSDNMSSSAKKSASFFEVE
Format: cell membranes, Membrane

Ki [nM]	SMILES
22	CCCc1nn(Cc2ccc(-c3ccccc3-c3nn[nH]n3)cc2)/c(=N/C(=O)c2ccccc2Cl)s1
7.24	CCc1nn(Cc2ccc(-c3ccccc3-c3nn[nH]n3)cc2)/c(=N/C(=O)c2ccccc2F)s1
3.47	CCc1nn(Cc2ccc(-c3ccccc3-c3nn[nH]n3)cc2)/c(=N/C(=O)c2ccccc2Br)s1
2	CCCc1nn(Cc2ccc(-c3ccccc3-c3nn[nH]n3)cc2)/c(=N/C(=O)c2ccccc2C(=O)O)s1
2.5	CCc1nn(Cc2ccc(-c3ccccc3-c3nn[nH]n3)cc2)/c(=N/C(=O)c2ccccc2OC)s1
35.9	CCc1nn(Cc2ccc(-c3ccccc3-c3nn[nH]n3)cc2)/c(=N/C(=O)c2ccccc2C)s1
330	CCc1nn(Cc2ccc(-c3ccccc3-c3nn[nH]n3)cc2)/c(=N/C(=O)c2ccc(Cl)cc2)s1
0.619	CCc1nn(Cc2ccc(-c3ccccc3-c3nn[nH]n3)cc2)/c(=N/C(=O)c2ccccc2C(=O)O)s1
6	CCc1nn(Cc2ccc(-c3ccccc3-c3nn[nH]n3)cc2)/c(=N/C(=O)c2ccccc2C(F)(F)F)s1
28	CCc1nn(Cc2ccc(-c3ccccc3-c3nn[nH]n3)cc2)/c(=N/C(=O)c2ccc(OC)cc2)s1
200	CCCCc1nn(Cc2ccc(-c3ccccc3-c3nn[nH]n3)cc2)/c(=N/C(=O)c2ccccc2Cl)s1
102	CCc1nn(Cc2ccc(-c3ccccc3-c3nn[nH]n3)cc2)/c(=N/C(=O)c2ccc(F)cc2)s1
141	CCc1nn(Cc2ccc(-c3ccccc3-c3nn[nH]n3)cc2)/c(=N/C(=O)c2ccc([N+](=O)[O-])cc2)s1
18	Cc1nn(Cc2ccc(-c3ccccc3-c3nn[nH]n3)cc2)/c(=N/C(=O)c2ccccc2Cl)s1
2.69	Cc1nn(Cc2ccc(-c3ccccc3-c3nn[nH]n3)cc2)/c(=N/C(=O)c2ccccc2C(=O)O)s1
300	CCc1nn(Cc2ccc(-c3ccccc3-c3nn[nH]n3)cc2)/c(=N/C(=O)c2cccc(Br)c2)s1
3.23	CCc1nn(Cc2ccc(-c3ccccc3-c3nn[nH]n3)cc2)/c(=N/C(=O)c2ccccc2[N+](=O)[O-])s1
447	CCc1nn(Cc2ccc(-c3ccccc3-c3nn[nH]n3)cc2)/c(=N/C(=O)c2cccc(C(F)(F)F)c2)s1
36	CCc1nn(Cc2ccc(-c3ccccc3-c3nn[nH]n3)cc2)/c(=N/C(=O)c2ccccc2)s1
79.4	CCc1nn(Cc2ccc(-c3ccccc3-c3nn[nH]n3)cc2)/c(=N/C(=O)c2cccc(C)c2)s1
190	CCc1nn(Cc2ccc(-c3ccccc3-c3nn[nH]n3)cc2)/c(=N/C(=O)c2cccc(Cl)c2)s1
15.1	O=C(/N=c1\sc(C2CC2)nn1Cc1ccc(-c2ccccc2-c2nn[nH]n2)cc1)c1ccccc1Cl
557	CCc1nn(Cc2ccc(-c3ccccc3-c3nn[nH]n3)cc2)/c(=N/C(=O)c2ccc(C(F)(F)F)cc2)s1
134	CCc1nn(Cc2ccc(-c3ccccc3-c3nn[nH]n3)cc2)/c(=N/C(=O)c2cccc(F)c2)s1
3.39	CCc1nn(Cc2ccc(-c3ccccc3-c3nn[nH]n3)cc2)/c(=N/C(=O)c2ccccc2Cl)s1
320	CCc1nn(Cc2ccc(-c3ccccc3-c3nn[nH]n3)cc2)/c(=N/C(=O)c2ccc(Br)cc2)s1
48	CCc1nn(Cc2ccc(-c3ccccc3-c3nn[nH]n3)cc2)/c(=N/C(=O)c2ccc(C)cc2)s1
49	CCc1nn(Cc2ccc(-c3ccccc3-c3nn[nH]n3)cc2)/c(=N/C(=O)c2cccc(OC)c2)s1
141	CCc1nn(Cc2ccc(-c3ccccc3-c3nn[nH]n3)cc2)/c(=N/C(=O)c2cccc([N+](=O)[O-])c2)s1
3.86	CCc1nn(Cc2ccc(-c3ccccc3-c3nn[nH]n3)cc2)/c(=N/C(=O)c2ccccc2I)s1
